Patent US8476197B2, “Aminopropenoates as fungicides” (priority 2009, dated 2013)
Marks after values point to notes of the source that are not given here.

Settings: pH 2.3

Log P	Compound
2.03^[c]; 2.03^[b]	C=CCOc1ncccc1C(NC(C)c1nccs1)=C(C#N)C(=O)OCC (racemic) [Compound 1506]
1.57^[c]; 1.57^[b]	COC(=O)C(C#N)=C(NCc1ncccn1)c1cccnc1Cl [Compound 13]
1.79	COC(=O)C(C#N)=C(NCC1OCCO1)c1cccnc1Cl [Compound 14]
2.66	COC(=O)C(C#N)=C(NC(C)c1nccs1)c1sc(C)nc1C(F)(F)F (centres unmarked) [Compound 17]
2.61	COC(=O)C(C#N)=C(NC(C)c1nccs1)c1sccc1Cl (centres unmarked) [Compound 18]

Same assay, conditions: pH 2.7

Compound	Log P
CCOC(=O)C(C#N)=C(NC(C)COc1ccccc1C)c1cn(C)nc1C(F)F (racemic) [Compound 1242]	3.78^[a]
CCOC(=O)C(C#N)=C(NC(C)c1ccccn1)c1ccnc(C)c1Cl (racemic) [Compound 1243]	2.6^[a]
CCOC(=O)C(C#N)=C(NC(C)c1nccs1)c1cn(C)nc1I (racemic) [Compound 1247]	3.46^[a]
CCOC(=O)C(C#N)=C(NC(C)c1ccccn1)c1cn(C)nc1I (racemic) [Compound 1248]	2.37^[a]
CCOC(=O)C(C#N)=C(NC(C#N)CC)c1cn(C)nc1C(F)F (racemic) [Compound 1251]	2.45^[a]
CCOC(=O)C(C#N)=C(NC(C#N)CC(C)C)c1cn(C)nc1C(F)F (racemic) [Compound 1252]	3.04^[a]
CCOC(=O)C(C#N)=C(NC(C)C(F)(F)F)c1cn(C)nc1C(F)F (racemic) [Compound 1253]	2.92^[a]
CCOC(=O)C(C#N)=C(NC(C)C#N)c1cn(C)nc1C(F)F (racemic) [Compound 1254]	2.15^[a]
CCNC(=O)C(C)NC(=C(C#N)C(=O)OCC)c1cn(C)nc1C(F)F (racemic) [Compound 1256]	1.88^[a]
CCOC(=O)C(C#N)=C(NC(C#N)Cc1ccccc1)c1cccnc1Cl (racemic) [Compound 1259]	3.02^[a]
CCOC(=O)C(C#N)=C(NC(c1ccc(N(C)C)cc1)C(F)(F)F)c1cccnc1Cl (racemic) [Compound 1260]	3.99^[a]
CCOC(=O)C(C#N)=C(NC(c1ccc(Cl)cc1)C(F)(F)F)c1cccnc1Cl (racemic) [Compound 1261]	4.25^[a]
CCOC(=O)C(C#N)=C(NC(Cc1ncccc1C)C(F)(F)F)c1cccnc1Cl (racemic) [Compound 1262]	3.04^[a]
CCOC(=O)C(C#N)=C(NC(C#N)c1ccc(Cl)cc1Cl)c1cccnc1Cl (racemic) [Compound 1267]	3.83^[a]
CCOC(=O)C(C#N)=C(NC(C)C(=O)CC)c1cccnc1Cl (racemic) [Compound 1270]	2.64^[a]
CCNC(=O)C(C#N)=C(NC(C)c1ccccn1)c1ccnc(C)c1Cl (racemic) [Compound 1277]	2.7^[a]
CC(NC(=C(C#N)C(=O)NC1CC1)c1cn(C)nc1C(F)F)c1nccs1 (racemic) [Compound 1279]	2.04^[a]
CC(NC(=C(C#N)C(=O)NC1CC1)c1cn(C)nc1C(F)F)c1ccccn1 (racemic) [Compound 1280]	1.84^[a]
C=CCNC(=O)C(C#N)=C(NC(C)c1ccccn1)c1cn(C)nc1C(F)F (racemic) [Compound 1291]	2.02^[a]
C=CCNC(=O)C(C#N)=C(NC(C)c1nccs1)c1cn(C)nc1C(F)F (racemic) [Compound 1292]	2.2^[a]

Compound	Log P
CCNC(=O)C(C#N)=C(NC(C)c1ccccn1)c1cn(C)nc1C(F)F (racemic) [Compound 1293]	1.86^[a]
CCNC(=O)C(C#N)=C(NC(C)c1nccs1)c1cn(C)nc1C(F)F (racemic) [Compound 1294]	2.05^[a]
CCCC(C)NC(=C(C#N)C(=O)OCC)c1ccnc(Cl)c1Cl (racemic) [Compound 1390]	3.99^[a]
CCOC(=O)C(C#N)=C(NC(C)c1ccccn1)c1ccnc(SC)c1Cl (racemic) [Compound 1393]	3.35^[a]
CCOC(=O)C(C#N)=C(NC(C)c1ccccn1)c1ccncc1C(F)(F)F (racemic) [Compound 1394]	2.7^[a]
CCOC(=O)C(C#N)=C(NC(C)c1ccccn1)c1ccnc(-c2ccccc2)c1Cl (racemic) [Compound 1398]	3.33^[a]
CCOC(=O)C(C#N)=C(NC(C)c1ccccn1)c1ccnc(Cl)c1Br (racemic) [Compound 1404]	3.06^[a]
CCOC(=O)C(C#N)=C(NC(C)c1nccs1)c1ccnc(Cl)c1Br (racemic) [Compound 1406]	2.96^[a]
C#CCNC(=O)C(C#N)=C(NC(C)c1ccccn1)c1cn(C)nc1C(F)F (racemic) [Compound 1407]	1.89^[a]
CCOC(=O)C(C#N)=C(NC(C)C(C)CC)c1scnc1Cl (racemic) [Compound 1481]	3.92^[a]
CCOC(=O)C(C#N)=C(NC(C)c1nccs1)c1cnn(C)c1Cl (racemic) [Compound 1483]	2.42^[a]
CCOC(=O)C(C#N)=C(NC(C)c1ccccn1)c1ccnc2ccccc12 (racemic) [Compound 1497]	2.5^[a]
CCOC(=O)C(C#N)=C(NC(c1ccccn1)C(F)(F)F)c1cccnc1Cl (racemic) [Compound 1549]	3.17^[a]
CCOC(=O)C(C#N)=C(NC(c1cncnc1C(F)(F)F)C(C)C)c1cccnc1Cl (racemic) [Compound 1557]	3.55^[a]
CCOC(=O)C(C#N)=C(NC(C)c1cc(Cl)ccc1Cl)c1cccnc1Cl (racemic) [Compound 1558]	4.13^[a]
CC(NC(=C(C#N)C(=O)NCCF)c1cccnc1Cl)c1nccs1 (racemic) [Compound 1563]	2^[a]
CCOC(=O)C(C#N)=C(NC(C)c1cccc2ccccc12)c1ncc(Cl)cc1Cl (centres unmarked) [Compound 2]	4.65^[a]
CCOC(=O)C(C#N)=C(NC(C)c1nccs1)c1cccnc1Cl (centres unmarked) [Compound 6]	2.58
COC(=O)C(C#N)=C(NC(C)c1nccs1)c1sc(C)nc1C(F)(F)F (centres unmarked) [Compound 17]	2.78

Results, then the compound that gave them:

Log P	Compound
2.77^[a]	CCCC(C#N)NC(=C(C#N)C(=O)OCC)c1cn(C)nc1C(F)F (racemic) [Compound 1250]
3.69^[a]	CCOC(=O)C(C#N)=C(NC(C#N)c1cccc(Cl)c1Cl)c1cccnc1Cl (racemic) [Compound 1257]
2.37^[a]	C#CCC(C#N)NC(=C(C#N)C(=O)OCC)c1cccnc1Cl (racemic) [Compound 1258]
1.96^[a]	COCCNC(=O)C(C#N)=C(NC(C)c1nccs1)c1cn(C)nc1C(F)F (racemic) [Compound 1287]
1.75^[a]	COCCNC(=O)C(C#N)=C(NC(C)c1ccccn1)c1cn(C)nc1C(F)F (racemic) [Compound 1288]
3.44^[a]	CC#CC(C)NC(=C(C#N)C(=O)OCC)c1ccnc(Cl)c1Cl (racemic) [Compound 1386]
3.33^[a]	CCOC(=O)C(C#N)=C(NC(C)c1ncc(C)s1)c1ccnc(Cl)c1Cl (racemic) [Compound 1389]
3.09^[a]	CCOC(=O)C(C#N)=C(NC(C)c1ccccn1)c1ccnc(Br)c1Cl (racemic) [Compound 1391]
3^[a]	CCOC(=O)C(C#N)=C(NC(C)c1ccccn1)c1ccnc(Br)c1F (racemic) [Compound 1395]
2.96^[a]	CCOC(=O)C(C#N)=C(NC(C)c1ccccn1)c1ccnc(CC)c1Cl (racemic) [Compound 1396]
3.29^[a]	CCCc1nccc(C(NC(C)c2ccccn2)=C(C#N)C(=O)OCC)c1Cl (racemic) [Compound 1397]
3.11^[a]	CCOC(=O)C(C#N)=C(NC(C)c1ccccn1)c1ccnc(Br)c1Br (racemic) [Compound 1409]
2.55^[a]	CCNC(=O)C(C#N)=C(NC(C)c1ccccn1)c1ccnc(Cl)c1Br (racemic) [Compound 1411]
2.13^[a]	CCOC(=O)C(C#N)=C(NC(C)c1cnccn1)c1cccnc1Cl (racemic) [Compound 1415]
2.94^[a]	CCOC(=O)C(C#N)=C(NC(C)C(C)OC)c1scnc1Cl (racemic) [Compound 1480]
2.35^[a]	CCOC(=O)C(C#N)=C(NC(C)c1ccccn1)c1cnn(C)c1Cl (racemic) [Compound 1484]
3.02^[a]	CCOC(=O)C(C#N)=C(NC(C)C1CC1)c1ccnc2ccccc12 (racemic) [Compound 1500]
2.28^[a]	CCOC(=O)C(C#N)=C(NC(c1cncnc1C)C(C)C)c1cccnc1Cl (racemic) [Compound 1538]
3.21^[a]	CCOC(=O)C(C#N)=C(NC(C)c1nc2c(s1)CCCC2)c1cccnc1Cl (racemic) [Compound 1548]
2.84^[a]	CCOC(=O)C(C#N)=C(NC(C)c1nc(C)sc1C)c1cccnc1Cl (racemic) [Compound 1552]
3.23^[a]	CCOC(=O)C(C#N)=C(NC(C)C1CC1)c1cn(C)nc1C(Cl)Cl (racemic) [Compound 1560]
3.67^[a]	CCOC(=O)C(C#N)=C(NC(C)C1CCC1)c1cn(C)nc1C(Cl)Cl (racemic) [Compound 1561]
2.7^[a]	CCOC(=O)C(C#N)=C(NC(C)c1ccccn1)c1cn(C)nc1C(Cl)Cl (racemic) [Compound 1565]
3.44^[a]	CCOC(=O)C(C#N)=C(NC(C)c1nc(C)cs1)c1sccc1Br (single isomer, unassigned) [Compound 167]
4.4^[a]	CCOC(=O)C(C#N)=C(NC(C)c1cccc2ccccc12)c1nc(Cl)ccc1Cl (centres unmarked) [Compound 1]
4.4^[a]	CCOC(=O)C(C#N)=C(NC(C)c1cccc2ccccc12)c1cnc(Cl)cc1Cl (centres unmarked) [Compound 3]

Same assay, conditions: pH 7.5

Compound	Log P
CCOC(=O)C(C#N)=C(NC(C)c1nccs1)c1cccnc1Br (racemic) [Compound 1547]	2.44
COC(=O)C(C#N)=C(NC(C)c1nc2ccccc2s1)c1cccnc1Cl (centres unmarked) [Compound 15]	2.95
COC(=O)C(C#N)=C(NCC1CCCO1)c1cccnc1Cl (centres unmarked) [Compound 16]	2.03
COC(=O)C(C#N)=C(NC(C)c1nccs1)c1sc(C)nc1C(F)(F)F (centres unmarked) [Compound 17]	2.63

Second part, the compound after the results:

Log P	Compound
2.03^[c]; 2.03^[b]	C=CCOc1ncccc1C(NC(C)c1nccs1)=C(C#N)C(=O)OCC (racemic) [Compound 1506]
2.4	CCOCCOC(=O)C(C#N)=C(NC(C)c1nccs1)c1cccnc1Cl (centres unmarked) [Compound 12]
1.57^[c]; 1.57^[b]	COC(=O)C(C#N)=C(NCc1ncccn1)c1cccnc1Cl [Compound 13]
1.77	COC(=O)C(C#N)=C(NCC1OCCO1)c1cccnc1Cl [Compound 14]
2.59	COC(=O)C(C#N)=C(NC(C)c1nccs1)c1sccc1Cl (centres unmarked) [Compound 18]
2.69	COC(=O)C(C#N)=C(NC(C)c1nc(C)c(C)s1)c1cccnc1Cl (centres unmarked) [Compound 19]
